We go through 8 compounds from ChEMBL document CHEMBL1201862, “PubChem BioAssay data set” (2004).

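Following 48 hours of exposure in 96-well plates, responses at five concentrations were used to interpolate endpoints linearly. Abbreviation: GI50, concentration required for 50% inhibition of growth.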 The source made the active and inactive calls. Rule as the data show it: active = GI50 up to about 1.1 µM and inactive = higher. Bounds are passed on as bounds.

Test systems include IGROV-1; SK-MEL-2; HOP-92; HOP-62; EKVX; CCRF-CEM; SF-268; OVCAR-8; SNB-75; Malme-3M; UACC-257; OVCAR-3; NCI-H23; SW-620; SF-539; SK-OV-3; HT-29; HCT-15.
Common to all, as to test: NCI anticancer screen, dose series, 48 h

For `Cc1cccc(-c2nnc3s/c(=C\c4ccc(N(C)C)cc4)c(=O)n23)c1`, the GI50 with IGROV-1, with SK-MEL-2, in the assay with HOP-92, in the assay on HOP-62, in the assay with EKVX and in the assay with CCRF-CEM was > 100 µM (inactive) each time. The GI50 in the assay on SF-268, with OVCAR-8, in the assay on SNB-75, with Malme-3M, in the assay on UACC-257 and in the assay on OVCAR-3 was > 100 µM (inactive) throughout. Moreover, the GI50 with NCI-H23, in the assay with SW-620, in the assay with SF-539 and with SK-OV-3 was > 100 µM (inactive) in each case.

For `N[C@H](C(=O)O)[C@@H](Cl)CC(=O)O`, the GI50 with IGROV-1, with SK-MEL-2, in the assay on HOP-92, in the assay on HOP-62, with EKVX and in the assay on CCRF-CEM was > 100 µM (inactive) each time. Further, the GI50 with SF-268 is > 100 µM (inactive); in the assay with HT-29, > 100 µM (inactive); in the assay on HCT-15 it was more than 100 µM; with OVCAR-8, > 100 µM (inactive); in the assay on SNB-75 it was > 100 µM (inactive); in the assay on Malme-3M, > 100 µM (inactive). The GI50 with UACC-257, with OVCAR-3, in the assay with NCI-H23, in the assay on SW-620, in the assay with SF-539 and in the assay with SK-OV-3 was > 100 µM (inactive) throughout.

Regarding `N#Cc1cccc(C2C(=O)c3ccc(C(=O)c4ccc5c(c4)C(=O)N(c4ccc(Oc6ccc(N7C(=O)c8ccc(C(=O)c9ccc%10c(c9)C(=O)N(c9cccc(C#N)c9)C%10=O)cc8C7=O)cc6)cc4)C5=O)cc3C2=O)c1` (stereo not drawn), the GI50 in the assay on IGROV-1, in the assay with SK-MEL-2, in the assay on HOP-92, in the assay with HOP-62, in the assay on EKVX and with CCRF-CEM was > 100 µM (inactive) in each case. Besides, the GI50 in the assay on SF-268 was > 100 µM (inactive); in the assay on HT-29, > 100 µM (inactive); in the assay on HCT-15, more than 100 µM; with OVCAR-8, > 100 µM (inactive); in the assay with SNB-75, > 100 µM (inactive); with Malme-3M it was > 100 µM (inactive). For the same compound, the GI50 in the assay on UACC-257, in the assay on OVCAR-3, in the assay on NCI-H23, in the assay with SW-620 and in the assay on SF-539 was > 100 µM (inactive) throughout.

In the case of `Cc1cc(C)c(S(=O)(=O)ONC(=O)OC(C)(C)C)c(C)c1`, the GI50 in the assay on IGROV-1, in the assay with SK-MEL-2, in the assay with HOP-92, with HOP-62, in the assay with EKVX and in the assay on CCRF-CEM was > 100 µM (inactive) in each case. In addition, the GI50 with SF-268 is > 100 µM (inactive); with HT-29, > 100 µM (inactive); in the assay with HCT-15 it was more than 100 µM; in the assay with OVCAR-8 it was > 100 µM (inactive); with SNB-75 it was > 100 µM (inactive); in the assay on Malme-3M, > 100 µM (inactive). The GI50 with UACC-257, in the assay with OVCAR-3, in the assay on NCI-H23, with SW-620, in the assay with SF-539 and in the assay on SK-OV-3 was > 100 µM (inactive) throughout.

`CCCCNC(=S)Nn1c(-c2ccccc2)nc2ccccc2c1=O`: the GI50 with IGROV-1 was > 100 µM (inactive); in the assay with SK-MEL-2, > 100 µM (inactive); in the assay on HOP-92, 67.3 µM (inactive); in the assay with HOP-62, > 100 µM (inactive); in the assay on CCRF-CEM, 38.3 µM (inactive); in the assay on SF-268 it was > 100 µM (inactive). Also, the GI50 in the assay on HT-29 is 68.5 µM (inactive); in the assay with HCT-15 it was more than 100 µM; with OVCAR-8 it was > 100 µM (inactive); in the assay with SNB-75, 41.7 µM (inactive); in the assay with Malme-3M, > 100 µM (inactive); in the assay on UACC-257 it was > 100 µM (inactive). The GI50 in the assay on NCI-H23, in the assay on SW-620, with SF-539 and with SK-OV-3 was > 100 µM (inactive) in each case.

For the compound `O=C(Oc1ccc2c(-c3ccccc3)c(C(=O)Nc3ccc(Cl)cc3)c(=O)oc2c1)c1ccccc1`, the GI50 with IGROV-1, with SK-MEL-2, in the assay on HOP-62, with EKVX, in the assay with CCRF-CEM and in the assay with HT-29 was > 100 µM (inactive) in each case. The GI50 with HCT-15 was more than 100 µM; in the assay on OVCAR-8 it was > 100 µM (inactive); in the assay with SNB-75, 52.2 µM (inactive); in the assay with Malme-3M it was > 100 µM (inactive); in the assay on UACC-257, > 100 µM (inactive); with OVCAR-3, > 100 µM (inactive). Further, the GI50 with NCI-H23, in the assay on SW-620, with SF-539 and with SK-OV-3 was > 100 µM (inactive) each time.

As to `Cc1c(C#N)c(=O)[nH]c(=O)n1CCN1CCN(C(=O)NCCCCCCNC(=O)N2CCN(CCn3c(C)c(C#N)c(=O)[nH]c3=O)CC2)CC1`, the GI50 with IGROV-1, in the assay on HOP-92, in the assay on HOP-62, in the assay with EKVX, with CCRF-CEM and with HT-29 was > 100 µM (inactive) in each case. Further, the GI50 is more than 100 µM in the assay with HCT-15; > 100 µM (inactive) in the assay on OVCAR-8; > 100 µM (inactive) with SNB-75; > 100 µM (inactive) in the assay with UACC-257; > 100 µM (inactive) with OVCAR-3; > 100 µM (inactive) in the assay with NCI-H23. For the same compound, the GI50 in the assay on SW-620, in the assay on SF-539 and in the assay with SK-OV-3 was > 100 µM (inactive) in each case.

As for `NC(=O)C(=O)C1CCC2=C(Sc3ccccc3N2)C1=O` (stereo not drawn), the GI50 in the assay with IGROV-1 was > 100 µM (inactive); in the assay on SK-MEL-2, > 100 µM (inactive); in the assay with HOP-92 it was 27.4 µM (inactive); with HOP-62, > 100 µM (inactive); in the assay with EKVX it was > 100 µM (inactive); with CCRF-CEM it was > 10 µM (inactive). Besides, the GI50 was > 100 µM (inactive) with SF-268; more than 100 µM in the assay on HCT-15; > 100 µM (inactive) in the assay on OVCAR-8; > 100 µM (inactive) in the assay on SNB-75; > 100 µM (inactive) in the assay with Malme-3M; > 100 µM (inactive) in the assay on UACC-257. Further, the GI50 with OVCAR-3, in the assay with NCI-H23, with SW-620, in the assay on SF-539 and with SK-OV-3 was > 100 µM (inactive) in each case.
